Consider two compounds from paper PMC11212140, “Molecular Bidents with Two Electrophilic Warheads as a New Pharmacological Modality” (ACS Central Science, 2024).

Assay [1] deals with H3255 cells. The experiment in a line: Cell viability assay (CellTiter-Glo). It is filed as cell-based. The settings on record: Homo sapiens, NCI-H3255, 72 h of treatment. Here is the method: (A) Dose–response curves for ZNL-0056 and osimertinib in H3255 cells following 72 h of treatment. Cell viability was assessed with CellTiter-Glo. Data are presented as the mean ± SEM (n = 4). Representative data from three independent experiments are shown. (B) Immunoblot assessment of the effect of ZNL-0056 on EGFR signaling pathway in H3255 cells after 6 h treatment. Representative blots from two independent experiments are shown. […] TEXT PRINTED IN THE PICTURE: (A) ZNL-0056: H3255: IC50 (nM): 471.3 | (A) Osimertinib: H3255: IC50 (nM): 27.76 […]
For infection of Ba/F3 cells, 2.5 mL of viral supernatant and 8 μg/mL polybrene was added to 2.5 million cells per well in six-well plates. […]
Cells were lysed in RIPA buffer (150 mM NaCl, 1.0% IGEPAL® CA-630, 0.5% sodium deoxycholate, 0.1% SDS, 50 mM Tris, pH 8.0) (Sigma, Cat# R0278) with protease inhibitor and phosphatase inhibitor (Roche). The protein concentrations were measured by BCA analysis (Thermo Fisher Scientific, Cat # PI23225). […]
or IRDye 680RD goat anti-Mouse IgG (LICOR Biosciences , Cat # 926-68070) secondary antibodies at room temperature for 1 hour. The membranes were detected on Odyssey CLx system. […]
treatment. Cell viability was determined by using CellTiter-Glo (Promega #G7571) according to the manufacturer’s instructions, measuring luminescence using an Envision plate-reader (PerkinElmer Inc.). […]

Assay [2] has as its system CaMK2a, CaMK2b, CaMK2d, CaMK2g. The experiment in a line: KiNativ profiling in H3255 cells. It is filed as cell-based. The settings on record: 2.5 µM; Lys2; DLKPENLLLASK
Here is the method:
(§1) H3255 cells were plated with 6.5x10^6 per condition in fresh media in 15 cm plates and treated the 80% confluency for 2 hours with DMSO or 2.5 μM of ZNL-0056. To harvest cells, plates were washed 3 times with cold PBS, then collected by scraping into 4 mL of cold PBS containing protease and phosphatase inhibitors. Cells were pelleted by centrifugation at 1350 g at 4 ℃ for 5 minutes and immediately frozen in liquid nitrogen. The frozen samples were sent to ActivX Biosciences (La Jolla, CA) for the remainder of the KiNativ profiling experiment4. […]

In assay [3] the test system is T1, PAN3.
T1 construct: purchased ActivX Biosciences (KiNativ)
The experiment in a line: KiNativ profiling in H3255 cells. Conditions: 2.5 µM, ATP. It is filed as cell-based, human. Here is the method:
(§2) Cellular target engagement assays […]
as §1

The test system of assay [4] is TAO1, TAO3. The experiment in a line: KiNativ profiling in H3255 cells. It is filed as cell-based, human. Conditions: 2.5 µM; Lys2; DIKAGNILLTEPGQVK
Here is the method: as §2, §1

Assay [5] relates to SRPK1, SRPK2. The experiment in a line: KiNativ profiling in H3255 cells. Conditions: 2.5 µM; Lys1; FVAMKVVK
Type of assay: cell-based, human. The procedure:
as §2, §1

Assay [6] has as its system T2, SGK3.
T2 construct: purchased ActivX Biosciences (KiNativ)
The assay can be described thus: KiNativ profiling in H3255 cells. Type of assay: cell-based, human. Conditions: 2.5 µM; Lys1; FYAVKVLQK
Here is the method: as §2, §1

The test system of assay [7] is T3, ATR.
T3 construct: purchased ActivX Biosciences (KiNativ)
The experiment in a line: KiNativ profiling in H3255 cells. The settings on record: 2.5 µM; ATP; FYIMMCKPK
It is filed as cell-based, human. Here is the method:
as §2, §1

For assay [8], the system named is MST3, MST4, YSK1. The assay can be described thus: KiNativ profiling in H3255 cells. The settings on record: 2.5 µM; Activation Loop; LADFGVAGQLTDTQIKR
Type of assay: cell-based, human. Here is the method: as §2, §1

Assay [9] relates to T4, PKD2.
T4 construct: purchased ActivX Biosciences (KiNativ)
The experiment in a line: KiNativ profiling in H3255 cells. Type of assay: cell-based, human. Conditions: 2.5 µM; Lys1; DVAVKVIDK
The procedure:
as §2, §1

The test system of assay [10] is T5, MAP2K2.
T5 construct: purchased ActivX Biosciences (KiNativ)
The assay can be described thus: KiNativ profiling in H3255 cells. It is filed as cell-based, human. Conditions: 2.5 µM; Lys2; HQIMHRDVKPSNILVNSR
Here is the method:
as §2, §1

In assay [11] the test system is T6, CLK1.
T6 construct: purchased ActivX Biosciences (KiNativ)
The assay can be described thus: KiNativ profiling in H3255 cells. The settings on record: 2.5 µM; Lys2; LTHTDLKPENILFVQSDYTEAYNPK
It is filed as cell-based, human. Here is the method:
as §2, §1

Assay [12] has as its system T7, CDK10.
T7 construct: purchased ActivX Biosciences (KiNativ)
The experiment in a line: KiNativ profiling in H3255 cells. The settings on record: 2.5 µM; Lys2; DLKVSNLLMTDK
Type of assay: cell-based, human. Here is the method:
as §2, §1

Take `C=CC(=O)Nc1cc(C(=O)Nc2nc3cccc(C)c3n2[C@@H]2CCCCN(C(=O)C=C)C2)cs1` [ZNL-0056]: in [1], the IC50 was determined as 471 nM. Also, the Inhibition is reported as -8.1% in assay [2]; -8.7% in [3] (IQKSSNFGYITSCYK); 10.8% in assay [3] (VMDPTKILITGK); -18.6% in assay [4]; -8.1% in [5]; 10.1% in assay [6]. Besides, the Inhibition in [7] is listed as 18.0%; in [8], 12.7%; in assay [9], 10.2%; in assay [10], 5.5%; in assay [11], -15.4%; in assay [12], 23.6%.

In [1], `C=CC(=O)Nc1cc(Nc2nccc(-c3cn(C)c4ccccc34)n2)c(OC)cc1N(C)CCN(C)C` [Osimertinib, osimertinib, reference compound] gave a half-inhibitory concentration (IC50) of 27.8 nM. Moreover, the Inhibition is listed as 3.2% in assay [2]; 10.9% in assay [3] (IQKSSNFGYITSCYK); 3.7% in assay [3] (VMDPTKILITGK); 6.6% in [4]; 21.8% in assay [5]; 2.9% in [6]. In addition, the Inhibition in assay [7] was -16.2%; in assay [8], -4.8%; in [9] it was -2.1%; in [10], 12.1%; in [11], 21.2%; in [12], 40.2%.
